± gives the expanded uncertainty stated by the source.
Conditions: Crystal; DTA

CCCCCCCCCCCCCC[P+](CCCCCC)(CCCCCC)CCCCCC.O=S(=O)([N-]S(=O)(=O)C(F)(F)F)C(F)(F)F
Normal melting temperature: 33.00 ± 1 °C
